Reference: patent US10335373B2, “Tamper resistant and dose-dumping resistant pharmaceutical dosage form” (GRÜNENTHAL GMBH, priority 2012, dated 2019)
Where a name gives a salt, the structure may show the parent alone.

For `C=CCN1CC[C@]23c4c5ccc(O)c4O[C@H]2C(=O)CC[C@@]3(O)[C@H]1C5` [naloxone hydrochloride], the “solubility in aqueous ethanol” value was “soluble”.
